The record followed here is patent publication US6833376B2, “5-aminoalkyl and 5-aminocarbonyl substituted indoles” (H. Lundbeck A/S, priority 1999, dated 2004).

For one data set, the target named is α1-adrenoceptors. Nature of the data set: Inhibition of [3H]-prazosin binding to α1-adrenoceptors in rat brain in vitro. Particulars: [3H]-prazosin 0.25 nM, membranes from rat brain. The method, then: Method and results in Hyttel & Larsen, J. Neurochem.
The tissue is homogenized (Ultra Turrax, 10 se) in 10 mL of ice cold 50 mM tris buffer pH 7.7 (at 25° C.). The homogenate is centiflged twice at 20,000 g for 10 min at 4° C. with rehomogenization of the pellet in 10 ml ice-cold buffer. The final pellet is homogenized in 250 vol (w/v) ice-cold buffer.
The binding experiment is initiated by addition of […] of tissue suspension (final tissue content corresponds to 3 mg original tissue) and by placing the 96 deep well titer plate in a 25° C. water bath. AU tests are made in triplicates. After incubation for 20 min, the samples are filtered on a Brandel harvester under vacuum (18 inch. Hg) through printed filtermat B (13 mm). Titerplates and filter are washed 1×10 sec flow 50 L/h with ice cold buffer.
The filter mat is dried for 1 h at 110° C. and then placed in a sample bag with Meltilex B/HS (14.5 g) and melted together on the T-Tray heat sealer.
(§1) For determination of the inhibition of binding, five concentrations of drugs covering 3 decades are used.

The target of data set [1] is T1, serotonin S2 (5HT2A) receptors (Rattus norvegicus, UniProt P14842).
T1 construct: rats (125-250 g) are sacrificed and cortical tissue is dissected and weighed; from tissue; host or cells: rat cortex membranes (male Wistar rats)
Description: Inhibition of [3H]-ketanserin binding to serotonin S2 (5HT2A) receptors in rat cortex in vitro. The method, then:
INHIBITION OF [^3H]-KETANSERIN BINDING TO SEROTONIN S2 (5HT2A) RECEPTORS IN RAT CORTEX IN VITRO
By this method, the inhibition by drugs of the binding of [^3H]-ketanserin (0.5 nM) to serotonin S2 (5-HT2) receptors in membranes from rat cortex is determined in vitro.
The tissue is homogenized (Ultra Turrax, 10 sec) in 10 mL of ice cold 50 mM tris buffer pH 7.7 (at 25° C.). The centrifige glassware used in this step has been rinsed by sonication for 10 min in ethanol. The homogenate is centrifuged twice at 20,000 g for 10 min. at 4° C., with rehomogenization of the pellet in 10 mnL ice-cold buffer. The final pellet is homogenized in 250 vol (w/v) ice-cold buffer.
Incubation tubes (96 deep well titer plate) kept on ice receive 50 mL of [^3H]-ketanserin (final concentration 0.5 nM).
The binding experiment is initiated by addition of […] of tissue suspension (final tissue content corresponds to 4 mg original tissue) and by placing the 96 deep well titer plate in a 37° C. water bath. All tests are made in triplicates.
After incubation for 30 min, the samples are filtered on a Brandel harvester under vacuum (18 inch Hg) through printed filter mat B (13 mm). Titerplate and filter are washed 2×10 sec. flow 50L/h with ice cold buffer.
The printed filter mat with purred labelled tissue are dried for 1 h at 110° C. and hereafter placed in a sample bag with Meltilex B/HS 14.5 g and melted together on the T-tray heat seal.
Specific binding is obtained by subtracting the nonspecific binding in the presence of 1 mM mianserin.
as §1
[^3H]-ketanserin=(ethylene-^3H)-ketanserin hydrochloride from New England Nuclear, specific activity […].

The next data set addresses T2, dopamine D2 receptors (Rattus norvegicus, UniProt P61169).
T2 construct: rats (125-250 g) are sacrificed and striatal tissue is dissected and weighed; from tissue; host or cells: rat corpus striatum membranes (male Wistar rats)
Nature of the data set: Inhibition of [3H]-spiperone binding to dopamine D2 receptors in rat corpus striatum in vitro. On the procedure:
Inhibition of [^3H]-Spiperone Binding to Dopamnine D2 Receptors in Rat Corpus Striatum in vitro
By this method, the inhibition by drugs of the binding of [^3H]-spiperone (=^3H]-spiro-peridol) (0.5 nM) to dopamine D-2 receptors in membranes from rat corpus striatum is determined in vitro. […] PharmacoL. ToxicoL. […] This is a test for dopamnine D2 receptor binding affinity in vitro.
The tissue is homogenized (Ultra Turrax, 10 sec.) in 10 mL of ice-cold 50 mM K-phosphate buffer pH 7.4 (at 25° C.). The homogenate is centrifuiged twice at 20,000 g for 10 min at 4° C. with rehomogenization of the pellet in 10 mL ice-old buffer. The final pellet is homogenized in 1300 vol (w/v) ice-cold buffer.
The binding experiment is initiated by addition of 100 μl of [^3H]-spiperone (final concentration 0.5 nM) and by placing the tubes in a 37° C. water bath. […] The tubes are rinsed with 5 mL ice-old buffer which are then poured on the filters. Thereafter, the filters are washed with 2×5 mL of buffer. The filters are placed in counting vials and 4 mL of appropriate scintillation fluid (e.g. Picofluor™15) are added. After shaking for 1 h and storage for 2 hrs in the dark, the content of radioactivity is determined by liquid scintillation counting. Specific binding is obtained by subtracting the nonspecific binding in the presence of 10 μM of 6,7-ADTN.
For determination of the inhibition of binding, five concentrations of drugs covering 3 orders of magnitude are used.
[^3H]-Spiperone=[phenyl-4-^3H]-spiperone from Amersham International plc. England, specific activity 15-25 Ci/mmol.

Where [2] appears, read: [3H]-ketanserin 0.5 nM, membranes from rat cortex, read-out: IC50 values 5-HT2A.
The mark [3] stands for this setting: [3H]-spiperone 0.5 nM, membranes from rat corpus striatum, read-out: IC50 values D2.

pIC50: −log10 of the molar value. Like-named read-outs stand apart in the source and are kept apart here.

T2 sequence (P61169 whole entry): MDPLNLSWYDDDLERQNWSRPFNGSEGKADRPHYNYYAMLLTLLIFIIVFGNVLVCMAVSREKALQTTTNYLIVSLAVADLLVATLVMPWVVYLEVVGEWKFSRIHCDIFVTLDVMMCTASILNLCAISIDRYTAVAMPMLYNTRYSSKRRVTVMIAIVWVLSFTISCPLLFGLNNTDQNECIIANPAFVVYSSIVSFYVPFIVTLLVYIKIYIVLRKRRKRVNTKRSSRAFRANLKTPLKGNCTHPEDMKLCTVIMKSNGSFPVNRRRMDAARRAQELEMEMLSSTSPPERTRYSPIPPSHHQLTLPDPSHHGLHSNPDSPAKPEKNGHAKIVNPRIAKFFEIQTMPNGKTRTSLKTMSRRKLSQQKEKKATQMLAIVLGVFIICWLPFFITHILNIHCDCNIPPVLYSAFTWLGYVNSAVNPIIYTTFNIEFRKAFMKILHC
T1 sequence (P14842 whole entry): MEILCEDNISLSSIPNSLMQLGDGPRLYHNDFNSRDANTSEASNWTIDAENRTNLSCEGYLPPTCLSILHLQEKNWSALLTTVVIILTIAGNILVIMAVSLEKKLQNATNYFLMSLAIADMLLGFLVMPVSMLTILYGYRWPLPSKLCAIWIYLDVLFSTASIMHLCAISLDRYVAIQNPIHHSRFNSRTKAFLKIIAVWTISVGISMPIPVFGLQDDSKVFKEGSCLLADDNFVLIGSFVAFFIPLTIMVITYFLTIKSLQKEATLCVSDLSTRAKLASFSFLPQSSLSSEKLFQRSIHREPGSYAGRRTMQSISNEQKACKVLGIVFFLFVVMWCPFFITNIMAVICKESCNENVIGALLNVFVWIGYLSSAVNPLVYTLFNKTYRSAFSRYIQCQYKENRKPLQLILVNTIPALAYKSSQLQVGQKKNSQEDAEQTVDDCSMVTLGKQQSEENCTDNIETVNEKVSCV

One may read the pIC50 as −log10 of the IC50, conventionally taken in molar units. At α1-adrenoceptors, `O=C1NCCN1CCN1CCC(c2cn(-c3ccc(F)cc3)c3ccc(Cl)cc23)CC1` [Sertindole, sertindole, reference compound] showed a pIC50 of 8.47.

Broadly, the melting point is the temperature, or range, at which the solid turns liquid. Regarding `CN(C)Cc1ccc2c(c1)c(C1CCN(CCN3CCNC3=O)CC1)cn2-c1ccc(F)cc1` [Compound 7c, 1-[2-[4-[5-Dimethylaminomethyl-1-(4-fluorophenyl)-1H-indol-3-yl]-1-piperidinyl]ethyl]-2-imidazolidinon], the melting point is 166 to 174 °C. Further, the pIC50 in data set [1] (setting [2]) was 7.30. Moreover, the pIC50 on α1-adrenoceptors is 8.89. Besides, the pIC50 on dopamine D2 receptors (setting [3]) is 6.74.

`CN(C)C(=O)c1ccc2c(c1)c(C1CCN(CCN3CCNC3=O)CC1)cn2-c1ccc(F)cc1` [Compound 7b, N,N-Dimethyl-1-(4-fluorophenyl)-3-[1-[2-(2-imidazolidinon-1-yl)ethyl]4-piperidinyl]-1H-indole-5-carboxamide] showed a melting point of 172 to 176 °C. Moreover, the pIC50 in data set [1] (setting [2]) was 7.74. On α1-adrenoceptors, the pIC50 was 8.27. In addition, the pIC50 on dopamine D2 receptors (setting [3]) is 6.77.

On to `CN(C)Cc1ccc2c(c1)c(C1=CCN(CCN3CCNC3=O)CC1)cn2-c1ccc(F)cc1` [Compound 7d, 1-[2-[4-[5-Dimethylaminomethyl-1-(4-fluorophenyl)-1H-indol-3-yl]-1,2,3,6-tetrahydropyridin-1-yl]ethyl]-2-imidazolidinon], for which the melting point lay within 146 to 148 °C. The compound further gave a pIC50 in data set [1] of 7.10. This compound also had a pIC50 at α1-adrenoceptors of 9.28. The same compound gave a pIC50 at dopamine D2 receptors of 7.46.

As for `COc1cc2nc(N3CCN(C(=O)c4ccco4)CC3)nc(N)c2cc1OC` [Prazosin, reference compound], the pIC50 at α1-adrenoceptors is 9.44.
